Each structure is given as a SMILES string. pEC50, pIC50: −log10 of the molar value. Where “and” joins values, the source holds several entries; their conditions need not be identical. Equal entries are not always repeated. Calls of active or inactive are those of the source.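 Rule for the calls: active = compounds giving half or more protection of infected cells from virus-caused growth loss, again on retest; inactive = the rest.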 Where only a bound is given, the exact number is not on record here.

74 compounds from PubChem BioAssay AID179 (DTP/NCI, 2004) can be followed below.

In the assay the test system is CEM cells HIV-1 protection, formazan growth assay. As to the kind of experiment: NCI AIDS Antiviral Assay. As to conditions: for pIC50: measured here: growth of uninfected CEM cells. The method in brief: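 Protection of CEM cells against HIV-1 measured as cell growth via soluble formazan read-out, with five concentrations tested on both infected and uninfected cells; failure to protect may reflect toxicity.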

For orientation: pEC50 means the negative decadic logarithm of the EC50, by convention in mol/L. Usually pIC50 stands for the negative decadic logarithm of the IC50, by convention in mol/L. The low end stands for a large IC50, the high end for a small IC50. In the case of `CC(C)COC(=N)c1ccccc1C1(O)CCCCC1`, the pEC50 was below 3.70 and the pIC50 is 3.93.
The like results for `C=CCOC(=O)C1C2OC3(C(C(=O)OC)=C2C(=O)OC)c2ccccc2CCC13` (configuration not stated) were, in that order, below 3.70 and 5.94.
On to `CCCCCCCCCCCCCCCCCCOCC(COP(=O)(O)OCC1OC(n2cc(C)c(=O)[nH]c2=O)CC1N=[N+]=[N-])OC(=O)CCCCCCCCCCCCCCC` (configuration not stated), for which the pEC50 is below 4.30 and the pIC50 is below 4.30.
For the compound `O=C1NC2C(NC(=O)N2Cl)N1Cl` (configuration not stated), the pEC50 was below 3.70 and the pIC50 is below 3.70.
Turning to `CN1C(=NCCO)NS(=O)(=O)c2ccccc21`, the pEC50 was below 3.01 and the pIC50 was below 3.01.
Turning to `O=C1CCCCC1CN1CCOCC1` (configuration not stated), the result was inactive.
`Cc1[nH]n(-c2ncc(C#N)c(=O)[nH]2)c(=O)c1CCO`: the pEC50 was below 3.70 and the pIC50 is below 3.70.
Regarding `Clc1nc2cc3c(cc2n2cccc12)oc1ccccc13`, the pEC50 was below 3.70 and the pIC50 is below 3.70.
For `CCN(CC)C(=S)N/N=C(/C)c1cccc(/C(C)=N\NC(=S)N(CC)CC)n1`, the pEC50 is below 3.70 and the pIC50 is 5.20.
The like results for `C[C@@H](c1ccccc1)C(CC#N)[C@H]1CCC[C@]1(O)C#Cc1ccc2c(c1)OCO2` (some centres not stated) were, in that order, below 3.70 and 4.94.
For `CC(C)(C)OC(=O)N1N=CCC1c1ccccc1` (configuration not stated), in that order: below 3.70 and below 3.70.
As for `Nc1nc2nsnc2nc1N`, the pEC50 was below 3.62 and the pIC50 is below 3.62.
In the case of `CCOP(=O)(OCC)C1C(=O)OC2(C)CCC1C2(C)C` (configuration not stated), the result was inactive.
On to `Oc1ccccc1C=Nc1ccccc1S.[Cu+2]`, for which the pEC50 is below 3.82 and the pIC50 was 5.59.
As to `O=C1C(c2[nH]c3ccc(S(=O)(=O)O)cc3c2O)=Nc2ccc(S(=O)(=O)O)cc21`, the pEC50 was below 3.70 and the pIC50 is below 3.70.
As to `Cc1c(Cc2ccccc2)n(COCCCO)c(=O)[nH]c1=O`, the negative logarithm of the EC50 (pEC50) is 3.86 and the pIC50 was below 3.70.
For `COC1/C=C/OC2(C)Oc3c(C)c(O)c4c(O)c(c(/C=N/NC5OC(COC(=O)c6ccccc6)C(OC(=O)c6ccccc6)C5OC(=O)c5ccccc5)c(O)c4c3C2=O)NC(=O)C(C)=C/C=C/C(C)C(O)C(C)C(O)C(C)C(OC(C)=O)C1C` (configuration not stated), in that order: below 3.70 and 4.84.
For `C/C(=N/NS(=O)(=O)c1ccc(N)cc1)c1ccccc1O`, in that order: below 3.93 and below 3.93.
For `Cc1cc(C)c2c(O)c(S(=O)(=O)c3ccc(Cl)cc3)c(=O)oc2c1`, in that order: below 3.70 and 4.11.
`O=C1CCC2=NCc3c(ccc4ccccc34)N12`: the pEC50 was below 3.40 and the pIC50 was 3.46.
For `COC(=O)C(Cc1nc2ccc(Cl)cc2[nH]c1=O)/C(=N/O)C(=O)Nc1cccc(Cl)c1C` (configuration not stated), in that order: below 3.98 and below 3.98.
For `Cc1cc2nc(NS(=O)(=O)c3cc(C)c(Cl)cc3S)[nH]c2cc1C`, in that order: below 3.70 and below 3.70.
For `CSc1nc(-c2ccccc2)[nH]c(=O)n1`, in that order: below 3.70 and below 3.70.
Take `O=S(=O)(NCCSSCCNS(=O)(=O)c1cccs1)c1cccs1`: the pEC50 is below 3.70 and the pIC50 was 4.70.
For `CC(=O)OCC1OC(n2c3c(c(-c4ccco4)c(C#N)c2=S)CCCC3)C(OC(C)=O)C(OC(C)=O)C1OC(C)=O` (configuration not stated), in that order: below 3.70 and 3.81.
The like results for `CC(=O)NC1=C(C)C(=O)c2c(nc3n2CCC3O)C1=O` (configuration not stated) were, in that order, below 3.70 and 5.80.
For `N#CC1(O)CCCCCCCCCCC1`, in that order: below 3.70 and below 3.70.
In the case of `C[n+]1c2ccccc2n2c3ccccc3c(NCc3ccco3)c(C#N)c21`, the pEC50 was below 4.70 and the pIC50 was 5.83.
With `CC(C)(C)C1=CC(=C(P(=O)(O)O)P(=O)(O)O)C=C(C(C)(C)C)C1=O`, the pEC50 was below 3.27 and the pIC50 is below 3.27.
In the case of `Cc1ccc(NC(=S)Nc2c(C)n(C)n(-c3ccccc3)c2=O)cc1`, the pEC50 is below 3.70 and the pIC50 is below 3.70.
`O=C(O)[C@@H]1[C@H](OCc2ccccc2)[C@H](OCc2ccccc2)CN1C(=O)OCc1ccccc1`: the pEC50 is below 3.70 and the pIC50 is 3.94.
On to `c1ccc2c(c1)nc1nc3c(cn12)CCCCC3`, for which the result was inactive.
Regarding `Cc1nn(C(=O)c2ccc(Cl)cc2)c2c1C(c1ccc([N+](=O)[O-])cc1)SC(N)=N2` (configuration not stated), the pEC50 is below 3.70 and the pIC50 is 4.01.
The like results for `Cn1c(-c2cccs2)cc(-c2cccs2)c1-c1ccco1` were, in that order, below 3.70 and 4.52.
Take `NC(N)=NS(=O)(=O)c1ccc(N=c2c3ccccc3n(-c3ccccc3)c3ccccc23)cc1`: the result was inactive.
For `COc1c(O)c2ccccc2c2cc(O)ccc12`, the pEC50 is below 2.98 and the pIC50 is 5.28.
For `CCN1CCC(O)(/C=C/c2cccc(C)c2)C(C(=O)/C=C/c2cccc(C)c2)C1` (configuration not stated), in that order: below 3.70 and 5.45.
For `COc1cc(Oc2nc3c(N)cc(C(F)(F)F)cc3nc2-c2ccccc2)cc(OC)c1OC`, in that order: below 4.70 and 4.85.
For `COc1cc2cnc3c4cc(O)ccc4ccc3c2cc1OC`, in that order: below 4.07 and 4.35.
As to `O=C(CCCN1CCC2(CC1)OC(=O)N(c1ccccc1)C2=O)c1ccccc1`, the pEC50 was below 3.70 and the pIC50 was below 3.70.
Regarding `O=C1C(c2ccccc2)=C(c2ccccc2)C1(Cl)Cl`, the pEC50 was below 3.70 and the pIC50 is 5.61.
For `COc1cc(C(c2ccccc2)N2C(=O)CC[C@H]2C(=O)O)cc(OC)c1OC` (some centres not stated), in that order: below 3.70 and below 3.70.
Consider `Cc1cccc(C)c1NC(=O)C1C(=O)N(c2c(C)cccc2C)C(=O)/C1=N\N` (configuration not stated), for which the outcome was inactive.
Still for that read-out and setting: the same measure for `CC(=O)SCCC1c2[nH]c3ccccc3c2CCN1O` (configuration not stated): “inactive”.
In the case of `COc1ccccc1NC(=O)C(=O)C(C(=O)c1ccccc1F)C1OC(=O)c2ccccc21` (configuration not stated), the pEC50 was below 3.54 and the pIC50 was 4.68.
The like results for `COc1ccc(C[C@@H]2NC[C@@H](O)[C@@H]2OC(C)=O)cc1` were, in that order, below 5.38 and 7.77.
The like results for `C=C1C(=O)OC2CC(C)C3C=CC(=O)C3CC12` (configuration not stated) were, in that order, below 3.70 and 6.27.
For `Cc1c(/C=C/C(=O)O)no[n+]1[O-]`, in that order: below 3.70 and below 3.70.
Regarding `Cc1nc2ccc(Br)cc2c(=O)n1-c1ccc(NC2OC(CO)C(O)C(O)C2O)cc1` (configuration not stated), the pEC50 was below 3.70; the pIC50 was < 3.70 and 3.71.
Take `CCN(CC)c1ccc(N=O)c(O)c1`: the pEC50 was below 3.70 and the pIC50 was 5.06.
Consider `ON=C1CCC(c2ccccc2)CC1` (configuration not stated), for which the outcome was inactive.
With `COc1ccc(-c2cc(-c3ccccc3)n(C3OC(COC(C)=O)C(OC(C)=O)C(OC(C)=O)C3OC(C)=O)c(=S)c2C#N)cc1` (configuration not stated), the pEC50 was below 3.78 and the negative-log IC50 (pIC50) was 4.49.
The like results for `COC(=O)C[CH](C(=O)OC)[Ge]([CH3])([CH3])[S]c1ccccc1` (configuration not stated) were, in that order, below 4.00 and 4.74.
The like results for `C(=N/NC1=NCCN1)/c1c2ccccc2c(/C=N\NC2=NCCN2)c2ccccc12` were, in that order, below 5.97 and 7.44.
The like results for `CCC(=O)N(O)C(C)(C)C` were, in that order, below 2.76 and below 2.76.
For `C[N+]1(C2=C([O-])C(F)(F)C2=O)CCOCC1`, the pEC50 is below 3.70 and the pIC50 is below 3.70.
As for `COC(=O)C1(F)C(=O)NC(=O)NC1O` (configuration not stated), the pEC50 is below 3.70 and the pIC50 was 4.04.
Consider `CCOc1cn(C2OC(CO)C(O)C2O)c(=O)[nH]c1=O` (configuration not stated), for which the pEC50 was below 3.06 and the pIC50 is 3.31.
Turning to `C=CCOCCCCC(C(C)=O)C(=O)OC` (configuration not stated), the pEC50 was below 3.60 and the pIC50 was below 3.60.
On to `COc1ccc(/C(C)=N/NC(=O)CC(=O)N(C(=O)c2ccccc2)c2ccc(C)cc2)cc1`, for which the pEC50 was below 4.79 and the negative-log IC50 (pIC50) is below 4.79.
Regarding `C=C1SC(=Nc2ccccc2Cl)N(C(=O)c2sc3ccccc3c2Cl)C1(C)C`, the pEC50 is below 4.60 and the negative logarithm of the IC50 (pIC50) is 4.94.
For `O=S(=O)(c1ccccc1)C1CN2OC1(S(=O)(=O)c1ccccc1)CC21CCCCC1` (configuration not stated), the outcome was inactive.
For `NC(N)=NS(=O)(=O)c1ccc(NC(=O)c2cccc3c(N)c4ccccc4nc23)cc1`, the pEC50 was below 4.29 and the pIC50 is 4.47.
The like results for `CC12CCC3[C@@H](CC3(C)C)C(O)(CCC1=O)C2` (some centres not stated) were, in that order, below 3.70 and below 3.70.
The like results for `CSc1ccc(NC(=O)Nc2cc(C)ccn2)cc1` were, in that order, below 3.70 and 3.72.
With `O=C(O)CC12C3C4C5C3C1C5C42` (configuration not stated), the pEC50 is below 3.24 and the pIC50 was below 3.24.
For `COc1cc(C2c3cc4c(cc3OC3(OC)COC(=O)C23)OCO4)cc(OC)c1OC` (configuration not stated), the pEC50 was below 5.70 and the pIC50 is 6.62.
For the compound `COc1ccc(/C(C)=N/Nc2ccc([N+](=O)[O-])cc2[N+](=O)[O-])cc1`, the outcome was inactive.
For `C/C(=N\NC(=S)Nc1ccc(S(N)(=O)=O)cc1)c1ccccn1`, the pEC50 is below 3.84 and the pIC50 is 5.07.
For `CCOP(=O)(OCC)/C(C#N)=C/c1cccc(OC)c1`, in that order: below 3.64 and below 3.64.
For `COc1cc(CCC(=O)CC(=O)CCc2ccc(O)c(OC)c2)ccc1O`, in that order: below 3.70 and 4.46.
With `CN=c1ss/c(=N\C(=S)N(C)C)n1-c1ccccc1`, the outcome was inactive.
Take `Cc1ccc(N=Nc2c(C)nn(C(=O)CC(=O)Nc3ccc(Cl)cc3)c2C)cc1C`: the pEC50 was below 3.70 and the pIC50 is below 3.70.
Regarding `N/C(=N/N=C/c1ccc2ccccc2n1)NO`, the outcome was inactive.
